From patent US11345666B2, “Phenyl and pyridinyl substituted imidazoles as modulators of RORγT” (Janssen Pharmaceutica NV, priority 2018, dated 2022)

Tests used:
[1] = target: human RORγt ligand binding domain (RORγt LBD) (Homo sapiens (Human), UniProt P51449); assay: RORγt ThermoFluor assay
Procedure, shortened: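 Thermal shift of His-tagged human RORγt LBD (0.065 mg/mL) with 60 μM 1,8-ANS in 100 mM Hepes pH 7.0, 10 mM NaCl, 2.5 mM GSH, 0.002% Tween-20, heated at 1° C./min. Compounds in 1:2 series from a 10 mM DMSO stock; KD estimated from ΔTm using protein unfolding thermodynamics.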

full-length human RORγt = full-length human RORγt (Homo sapiens (Human), UniProt P51449); assay: RORγt (full-length human) reporter assay, conditions A or B; type: cell-based; conditions: for IC50: HEK293T cells, read-out: RORγt (FL) Reporter Assay A or B, IC50; for inhibition at 6 µM: read-out: RORγt (FL) Reporter Assay A or B, % inhibition @ 6 μM, 6 μM compound concentration; for inhibition at 2 µM: 2 μM compound concentration (**); for inhibition at 3 µM: 3 μM compound concentration (*)
Procedure, shortened: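 HEK293T cells transiently co-transfected (PEI) with GAL4-DBD–RORγt, GAL4-firefly luciferase and CMV-Renilla reporters; condition A 35,000 cells/well, 170.5 ng DNA/well; condition B 8750 cells/well, 42.6 ng DNA/well.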

[2] = tested on: Th17-dependent learned helplessness; conditions: mice; cited from earlier work
obese diabetic mice = conditions: cited from earlier work
[3] = read-out: RORγt (FL) Reporter Assay A or B, % inhibition

Sequence of full-length human RORγt (P51449 other isoform, or with tags, fused parts or gaps): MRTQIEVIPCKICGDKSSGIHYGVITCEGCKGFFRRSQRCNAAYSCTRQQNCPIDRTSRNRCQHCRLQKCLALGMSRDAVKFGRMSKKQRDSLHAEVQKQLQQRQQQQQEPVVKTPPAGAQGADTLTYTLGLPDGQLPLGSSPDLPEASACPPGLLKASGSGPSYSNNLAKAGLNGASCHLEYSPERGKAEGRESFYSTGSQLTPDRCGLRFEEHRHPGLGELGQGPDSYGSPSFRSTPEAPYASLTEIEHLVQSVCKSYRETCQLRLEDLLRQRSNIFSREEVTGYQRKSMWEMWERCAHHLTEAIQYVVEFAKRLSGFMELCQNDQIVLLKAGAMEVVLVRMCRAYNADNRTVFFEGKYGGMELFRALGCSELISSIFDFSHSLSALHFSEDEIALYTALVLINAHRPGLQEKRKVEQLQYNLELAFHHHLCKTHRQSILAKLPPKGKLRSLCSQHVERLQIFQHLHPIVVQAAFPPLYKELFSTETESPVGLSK
Sequence of human RORγt ligand binding domain (RORγt LBD) (P51449 other isoform, or with tags, fused parts or gaps): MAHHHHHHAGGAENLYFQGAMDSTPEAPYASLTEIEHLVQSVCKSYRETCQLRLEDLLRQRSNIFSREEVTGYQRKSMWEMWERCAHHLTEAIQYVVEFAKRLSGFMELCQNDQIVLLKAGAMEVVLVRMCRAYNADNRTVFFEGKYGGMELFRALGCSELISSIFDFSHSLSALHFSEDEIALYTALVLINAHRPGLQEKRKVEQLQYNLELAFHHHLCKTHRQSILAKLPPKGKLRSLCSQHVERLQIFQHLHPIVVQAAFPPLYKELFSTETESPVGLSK

Row | SMILES | Kd [1] | IC50 (full-length human RORγt) | inhibition at 6 µM (full-length human RORγt) | further results
1 | CCc1nc(C(=O)NC[C@H]2CC[C@H](S(C)(=O)=O)CC2)c(C#N)n1-c1ncc(CCC(F)(F)F)cc1OC [Example 119, 5-Cyano-2-ethyl-1-(3-methoxy-5-(3,3,3-trifluoropropyl)pyridin-2-yl)-N-(((1r,4r)-4-(methylsulfonyl)cyclohexyl)methyl)-1H-imidazole-4-carboxamide] | 190 nM | 720 nM | 96% | –
2 | CCc1nc(C(=O)NC[C@]2(O)CC[C@@H](S(C)(=O)=O)CC2)c(C#N)n1-c1ncc(CCC(F)(F)F)cc1OC [Example 120, 5-Cyano-2-ethyl-N-(((1s,4s)-1-hydroxy-4-(methylsulfonyl)cyclohexyl)methyl)-1-(3-methoxy-5-(3,3,3-trifluoropropyl)pyridin-2-yl)-1H-imidazole-4-carboxamide] | 830 nM | 1400 nM | 57% | –
3 | CCc1nc(C(=O)NC[C@]2(C#N)CC[C@@H](S(C)(=O)=O)CC2)c(C#N)n1-c1ncc(CCC(F)(F)F)cc1OC [Example 121, 5-Cyano-N-(((1s*,4s*)-1-cyano-4-(methylsulfonyl)cyclohexyl)methyl)-2-ethyl-1-(3-methoxy-5-(3,3,3-trifluoropropyl)pyridin-2-yl)-1H-imidazole-4-carboxamide] | 300 nM | 1700 nM | 76% | –
4 | CCc1nc(C(=O)NC[C@H]2CC[C@H](S(C)(=O)=O)CC2)c(C#N)n1-c1ncc(CC(C)(C)C(F)(F)F)cc1OC [Example 122, 5-Cyano-2-ethyl-1-(3-methoxy-5-(3,3,3-trifluoro-2,2-dimethylpropyl)pyridin-2-yl)-N-(((1r,4r)-4-(methylsulfonyl)cyclohexyl)methyl)-1H-imidazole-4-carboxamide] | 12 nM | 48 nM | – | inhibition at 2 µM (full-length human RORγt; [3]): 101%
5 | CCc1nc(C(=O)NC[C@]2(O)CC[C@@H](S(C)(=O)=O)CC2)c(C#N)n1-c1ncc(CC(C)(C)C(F)(F)F)cc1OC [Example 123, 5-Cyano-2-ethyl-N-(((1s,4s)-1-hydroxy-4-(methylsulfonyl)cyclohexyl)methyl)-1-(3-methoxy-5-(3,3,3-trifluoro-2,2-dimethylpropyl)pyridin-2-yl)-1H-imidazole-4-carboxamide] | 31 nM | 240 nM | 102% | –
6 | CCc1nc(C(=O)NC[C@]2(C#N)CC[C@@H](S(C)(=O)=O)CC2)c(C#N)n1-c1ncc(CC(C)(C)C(F)(F)F)cc1OC [Example 124, 5-Cyano-N-(((1s*,4s*)-1-cyano-4-(methylsulfonyl)cyclohexyl)methyl)-2-ethyl-1-(3-methoxy-5-(3,3,3-trifluoro-2,2-dimethylpropyl)pyridin-2-yl)-1H-imidazole-4-carboxamide] | 37 nM | 84 nM | 105% | –
7 | CCc1nc(C(=O)NC[C@H]2CC[C@H](S(C)(=O)=O)CC2)c(Cl)n1-c1ncc(CC(C)(C)C(F)(F)F)cc1OC [Example 125, 5-Chloro-2-ethyl-1-(3-methoxy-5-(3,3,3-trifluoro-2,2-dimethylpropyl)pyridin-2-yl)-N-(((1r,4r)-4-(methylsulfonyl)cyclohexyl)methyl)-1H-imidazole-4-carboxamide] | 1.8 nM | 11 nM | – | inhibition at 2 µM (full-length human RORγt; [3]): 99%
8 | CCc1nc(C(=O)NC[C@H]2CC[C@H](S(C)(=O)=O)CC2)c(C)n1-c1ncc(CC(C)(C)C(F)(F)F)cc1OC [Example 126, 2-Ethyl-1-(3-methoxy-5-(3,3,3-trifluoro-2,2-dimethylpropyl)pyridin-2-yl)-5-methyl-N-(((1r,4r)-4-(methylsulfonyl)cyclohexyl)methyl)-1H-imidazole-4-carboxamide] | 8.6 nM | 76 nM | 100% | –
9 | CCc1nc(C(=O)NC[C@]2(O)CC[C@@H](S(C)(=O)=O)CC2)c(C)n1-c1ncc(CC(C)(C)C(F)(F)F)cc1OC [Example 127, 2-Ethyl-N-(((1s,4s)-1-hydroxy-4-(methylsulfonyl)cyclohexyl)methyl)-1-(3-methoxy-5-(3,3,3-trifluoro-2,2-dimethylpropyl)pyridin-2-yl)-5-methyl-1H-imidazole-4-carboxamide] | 21 nM | 140 nM | 98% | –
10 | CCc1nc(C(=O)NC[C@]2(C#N)CC[C@@H](S(C)(=O)=O)CC2)c(C)n1-c1ncc(CC(C)(C)C(F)(F)F)cc1OC [Example 128, N-(((1s*,4s*)-1-Cyano-4-(methylsulfonyl)cyclohexyl)methyl)-2-ethyl-1-(3-methoxy-5-(3,3,3-trifluoro-2,2-dimethylpropyl)pyridin-2-yl)-5-methyl-1H-imidazole-4-carboxamide] | 37 nM | 310 nM | 105% | –
11 | COc1cc(CC(C)(C)C(F)(F)F)ccc1-n1cc(C(=O)NC[C@H]2CC[C@H](S(C)(=O)=O)CC2)nc1C [Example 129, 1-(2-Methoxy-4-(3,3,3-trifluoro-2,2-dimethylpropyl)phenyl)-2-methyl-N-(((1r,4r)-4-(methylsulfonyl)cyclohexyl)methyl)-1H-imidazole-4-carboxamide] | 45 nM | 130 nM | – | inhibition at 0.22 µM (full-length human RORγt; 0.22 μM compound concentration (******), read-out: RORγt (FL) Reporter Assay A or B, % inhibition): 47%
12 | COc1cc(CC(C)(C)C(F)(F)F)ccc1-n1cc(C(=O)NC[C@]2(O)CC[C@@H](S(C)(=O)=O)CC2)nc1C [Example 130, N-(((1s,4s)-1-hydroxy-4-(methylsulfonyl)cyclohexyl)methyl)-1-(2-methoxy-4-(3,3,3-trifluoro-2,2-dimethylpropyl)phenyl)-2-methyl-1H-imidazole-4-carboxamide] | 65 nM | 540 nM | – | inhibition at 2 µM (full-length human RORγt; [3]): 73%
13 | Cc1nc(C(=O)NC[C@H]2CC[C@H](S(C)(=O)=O)CC2)cn1-c1ccc(CC(C)(C)C(F)(F)F)cc1OC(F)F [Example 131, 1-(2-(Difluoromethoxy)-4-(3,3,3-trifluoro-2,2-dimethylpropyl)phenyl)-2-methyl-N-(((1r,4r)-4-(methylsulfonyl)cyclohexyl)methyl)-1H-imidazole-4-carboxamide] | 97 nM | 470 nM | – | inhibition at 3 µM (full-length human RORγt; [3]): 73%
14 | Cc1nc(C(=O)NC[C@]2(O)CC[C@@H](S(C)(=O)=O)CC2)cn1-c1ccc(CC(C)(C)C(F)(F)F)cc1OC(F)F [Example 132, 1-(2-(Difluoromethoxy)-4-(3,3,3-trifluoro-2,2-dimethylpropyl)phenyl)-N-(((1s,4s)-1-hydroxy-4-(methylsulfonyl)cyclohexyl)methyl)-2-methyl-1H-imidazole-4-carboxamide] | 340 nM | 800 nM | – | inhibition at 3 µM (full-length human RORγt; [3]): 87%
15 | Cc1nc(C(=O)NC[C@H]2CC[C@H](S(C)(=O)=O)CC2)c(Cl)n1-c1ncc(CC(C)(C)C(F)(F)F)cc1OC(F)F [Example 133, 5-Chloro-1-(3-(difluoromethoxy)-5-(3,3,3-trifluoro-2,2-dimethylpropyl)pyridin-2-yl)-2-methyl-N-(((1r,4r)-4-(methylsulfonyl)cyclohexyl)methyl)-1H-imidazole-4-carboxamide] | 9.5 nM | 37 nM | – | inhibition at 3 µM (full-length human RORγt; [3]): 72%
16 | CC(=O)Nc1nc(C)c(S(=O)(=O)Nc2ccc(C(O)(C(F)(F)F)C(F)(F)F)cc2)s1 [SR1001] | – | – | – | Th17-dependent learned helplessness [2]: reduced
17 | CC(=O)N1CCN(Cc2ccc(-c3ccc(C(O)(C(F)(F)F)C(F)(F)F)cc3)cc2)CC1 [SR1555] | – | – | – | body weight (obese diabetic mice): reduced; fat mass (obese diabetic mice): significant reduction; food intake (obese diabetic mice): modest reduction; insulin sensitivity (obese diabetic mice): improved
